For test [1], the target named is T1, MKNK1 (Homo sapiens, UniProt Q9BUB5, T385D).
T1 construct: GST (N); purchased Carna Biosciences 02-145; host or cells: insect cells (baculovirus expression system)
Nature of the test: MKNK1 kinase high ATP assay (TR-FRET-based). Type of test: biochemical. As to conditions: 2 mM ATP, 15 min preincubation. The procedure, abridged:
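GST-tagged full-length human MKNK1 (aa 1-424, T344D) from insect cells, preincubated with compound 15 min at 22 °C. Reaction 30 min at 22 °C with 2 mM ATP and 0.06 μM biotinylated peptide in HEPES pH 7.5, Mg2+, DTT. Phosphopeptide detected by TR-FRET (665/622 ratio) with anti-pS6 (pSer236) antibody; normalised to no-inhibitor and no-enzyme controls.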
In general terms: TR-FRET usually uses a lanthanide donor and a delayed reading to cut background.

Test [2] concerns the target T1, MKNK1. Nature of the test: MKNK1 kinase assay (MKNK1 TR-FRET assay). It counts as biochemical. As to conditions: 10 μM ATP, 15 min preincubation.

T1 sequence (Q9BUB5 1-424 isoform Q9BUB5-2 T344D): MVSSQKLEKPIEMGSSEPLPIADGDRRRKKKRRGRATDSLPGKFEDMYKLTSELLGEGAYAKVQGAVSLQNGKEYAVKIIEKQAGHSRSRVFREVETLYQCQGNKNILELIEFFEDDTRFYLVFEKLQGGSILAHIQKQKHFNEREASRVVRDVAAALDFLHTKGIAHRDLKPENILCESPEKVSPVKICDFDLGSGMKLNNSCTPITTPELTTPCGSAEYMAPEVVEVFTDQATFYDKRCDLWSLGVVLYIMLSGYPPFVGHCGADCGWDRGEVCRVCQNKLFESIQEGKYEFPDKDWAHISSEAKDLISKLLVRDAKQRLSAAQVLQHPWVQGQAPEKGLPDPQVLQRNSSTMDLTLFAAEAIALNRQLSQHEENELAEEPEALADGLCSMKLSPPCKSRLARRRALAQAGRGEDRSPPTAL

Consider `CC1(C)CN(c2cccc3oc(-c4cnc5ccc(OC[C@H]6CCC(=O)N6)nn45)cc23)CCO1` [II-74, (5R)-5-[({3-[4-(2,2-dimethylmorpholin-4-yl)-1-benzofuran-2-yl]imidazo[1,2-b]pyridazin-6-yl}oxy)methyl]pyrrolidin-2-one], for which the IC50 was 0.0112 µM against MKNK1 [1] (Table 2b) and 0.0041 µM on MKNK1 [2] (Table 1b).
For `C[C@H](N)COc1ccc2ncc(-c3cc4c(N5CCO[C@H](C)C5)cccc4o3)n2n1` [II-70, (2S)-1-[(3-{4-[(2R)-2-methylmorpholin-4-yl]-1-benzofuran-2-yl}imidazo[1,2-b]pyridazin-6-yl)oxy]propan-2-amine], the results for the IC50 on MKNK1 [1] (Table 2b) and at MKNK1 [2] (Table 1b) were 0.0492 µM and 0.0414 µM, respectively.
Regarding `CN1CCN(c2cccc3oc(-c4cnc5ccc(OC[C@H]6CCC(=O)N6)nn45)cc23)CC1` [II-18, (5R)-5-[({3-[4-(4-Methylpiperazin-1-yl)-1-benzofuran-2-yl]imidazo[1,2-b]-pyridazin-6-yl}oxy)methyl]pyrrolidin-2-one], the 50% inhibitory concentration (IC50) at MKNK1 [1] (Table 2b) and at MKNK1 [2] (Table 1b) was 0.0004 µM throughout.
As to `C[C@@H]1CN(c2cccc3oc(-c4cnc5ccc(O[C@H]6C[C@H](N)C6)nn45)cc23)CCO1` [II-73, trans-3-[(3-{4-[(2R)-2-methylmorpholin-4-yl]-1-benzofuran-2-yl}imidazo[1,2-b]pyridazin-6-yl)oxy]cyclobutanamine], the concentration for half-maximal inhibition (IC50) at MKNK1 [1] (Table 2b) was 0.0476 µM; against MKNK1 [2] (Table 1b), 0.0424 µM.
Turning to `C[C@H](N)COc1ccc2ncc(-c3cc4c(N5CC[C@H](N(C)C)C5)nccc4o3)n2n1` [III-115, (3S)-1-[2-(6-{[(2S)-2-aminopropyl]oxy}imidazo [1,2-b]pyridazin-3-yl)furo[3,2-c]pyridin-4-yl]-N,N-dimethylpyrrolidin-3-amine], the 50% inhibitory concentration (IC50) against MKNK1 [1] (Table 2c) is 0.0841 µM; against MKNK1 [2] (Table 1c), 0.0186 µM.
For `C[C@H]1CN(c2cccc3oc(-c4cnc5ccc(OC[C@@H]6CCC(=O)N6)nn45)cc23)CCO1` [II-68, (5S)-5-{[(3-{4-[(2S)-2-methylmorpholin-4-yl]-1-benzofuran-2-yl}imidazo[1,2-b]pyridazin-6-yl)oxy]methyl}pyrrolidin-2-one], the results for the half-maximal inhibitory concentration (IC50) against MKNK1 [1] (Table 2b) and against MKNK1 [2] (Table 1b) were 0.0304 µM and 0.0232 µM, respectively.
For the compound `COC[C@H]1CCCN1c1cccc2oc(-c3cnc4ccc(OCCCS(C)(=O)=O)nn34)cc12` [II-6, 3-{4-[(2R)-2-(Methoxymethyl)pyrrolidin-1-yl]-1-benzofuran-2-yl}-6-[3-(methyl-sulfonyl)propoxy]imidazo[1,2-b]pyridazine], the IC50 on MKNK1 [1] (Table 2b) is 0.014 µM; at MKNK1 [2] (Table 1b) it was 0.0071 µM.
Consider `C[C@H](N)COc1ccc2ncc(-c3cc4c(N5CCN(c6ccccc6)CC5)cccc4o3)n2n1` [II-15, (2S)-1-({3-[4-(4-Phenylpiperazin-1-yl)-1-benzofuran-2-yl]imidazo[1,2-b]-pyridazin-6-yl}oxy)propan-2-amine], for which the IC50 on MKNK1 [1] (Table 2b) is 0.137 µM; against MKNK1 [2] (Table 1b) it was 0.059 µM.
Turning to `C[C@H](N)COc1ccc2ncc(-c3cc4c(N5CCNCC5)nccc4o3)n2n1` [III-17, (2S)-1-({3-[4-(Piperazin-1-yl)furo[3,2-c]pyridin-2-yl]imidazo[1,2-b]pyridazin-6-yl}oxy)propan-2-amine], the IC50 against MKNK1 [1] (Table 2c) is 0.0442 µM; against MKNK1 [2] (Table 1c) it was 0.0183 µM.
`CCCN(CCOC)c1nccc2oc(-c3cnc4ccc(OC[C@H]5CCC(=O)N5)nn34)cc12` [III-82, (5R)-5-{[(3-{4-[(2-Methoxyethyl)(propyl)amino]furo[3,2-c]pyridin-2-yl}imidazo[1,2-b]pyridazin-6-yl)oxy]methyl}pyrrolidin-2-one]: the IC50 was found to be 0.0003 µM on MKNK1 [1] (Table 2c) and 0.0004 µM against MKNK1 [2] (Table 1c).
As for `CC(C)(C)CC(=O)N1CCC[C@H]1CCOc1ccc2ncc(-c3cc4ccccc4o3)n2n1` [Example I-6, 1-[(2S)-2-(2-{[3-(1-Benzofuran-2-yl)imidazo[1,2-b]pyridazin-6-yl]oxy}ethyl)-pyrrolidin-1-yl]-3,3-dimethylbutan-1-one], the IC50 against MKNK1 [1] (Table 2a) stood at 0.0092 µM; at MKNK1 [2] (Table 1a), 0.0034 µM.
For the compound `C[C@H](N)COc1ccc2ncc(-c3cc4c(N5CCC(N(C)C)CC5)nccc4o3)n2n1` [III-21, 1-[2-(6-{[(2S)-2-Aminopropyl]oxy}imidazo[1,2-b]pyridazin-3-yl)furo[3,2-c]pyridin-4-yl]-N,N-dimethylpiperidin-4-amine], the results for the half-inhibitory concentration (IC50) against MKNK1 [1] (Table 2c) and at MKNK1 [2] (Table 1c) were 0.0332 µM and 0.012 µM, respectively.
Take `COC[C@H]1CCCN1c1nccc2oc(-c3cnc4ccc(O[C@H](C)CN)nn34)cc12` [III-31, (2R)-2-[(3-{4-[(2R)-2-(Methoxymethyl)pyrrolidin-1-yl]furo[3,2-c]pyridin-2-yl}imidazo[1,2-b]pyridazin-6-yl)oxy]propan-1-amine]: the figures for the IC50 at MKNK1 [1] (Table 2c) and on MKNK1 [2] (Table 1c) were 0.003 µM and 0.0005 µM, respectively.
Turning to `C[C@@H]1COCCN1c1cccc2oc(-c3cnc4ccc(OC[C@@H](C)N)nn34)cc12` [II-37, (2R)-1-[(3-{4-[(3R)-3-methylmorpholin-4-yl]-1-benzofuran-2-yl}imidazo[1,2-b]pyridazin-6-yl)oxy]propan-2-amine], the IC50 against MKNK1 [1] (Table 2b) was 0.0691 µM; at MKNK1 [2] (Table 1b) it was 0.0439 µM.
Regarding `N[C@H]1C[C@H](Oc2ccc3ncc(-c4cc5c(N6CCOCC6)cccc5o4)n3n2)C1` [II-4, trans-3-({3-[4-(Morpholin-4-yl)-1-benzofuran-2-yl]imidazo[1,2-b]pyridazin-6-yl}oxy)cyclobutanamine], the IC50 on MKNK1 [1] (Table 2b) is 0.028 µM; at MKNK1 [2] (Table 1b), 0.018 µM.
Regarding `CC1(C)CN(c2cccc3oc(-c4cnc5ccc(OCCCS(C)(=O)=O)nn45)cc23)CCN1` [II-55, 3-[4-(3,3-dimethylpiperazin-1-yl)-1-benzofuran-2-yl]-6-[3-(methylsulfonyl)propoxy]im-idazo[l,2-b]pyridazine], the IC50 at MKNK1 [1] (Table 2b) turned out to be 0.0014 µM; against MKNK1 [2] (Table 1b) it was 0.0035 µM.
In the case of `COc1ccc2ncc(-c3cc4c(N5CCO[C@H](C)C5)nccc4o3)n2n1` [III-120, 6-methoxy-3-{4-[(2R)-2-methylmorpholin-4-yl]furo[3,2-c]pyridin-2-yl}imidazo[1,2-b]pyridazine], the half-inhibitory concentration (IC50) on MKNK1 [1] (Table 2c) was 0.0074 µM; against MKNK1 [2] (Table 1c), 0.0112 µM.
As for `CC(C)(C)OC(=O)N1CCN(c2nccc3oc(-c4cnc5ccc(OCCCS(C)(=O)=O)nn45)cc23)CC1` [III-49, tert-Butyl 4-(2-{6-[3-(methylsulfonyl)propoxy]imidazo[1,2-b]pyridazin-3-yl}furo[3,2-c]pyridin-4-yl)piperazine-1-carboxylate], the IC50 on MKNK1 [1] (Table 2c) was determined as 0.0385 µM; on MKNK1 [2] (Table 1c), 0.0213 µM.
For the compound `CC(C)CC(=O)N1CCC[C@H]1CCOc1ccc2ncc(-c3cc4ccccc4o3)n2n1` [Example I-60, 1-[(2S)-2-(2-{[3-(1-Benzofuran-2-yl)imidazo[1,2-b]-pyridazin-6-yl]oxy}ethyl)pyrrolidin-1-yl]-3-methylbutan-1-one], the concentration for half-maximal inhibition (IC50) against MKNK1 [1] (Table 2a) worked out at 0.0054 µM; against MKNK1 [2] (Table 1a), 0.0022 µM.
`C[C@H](N)COc1ccc2ncc(-c3cc4c(N5CCC(CO)CC5)nccc4o3)n2n1` [III-22, {1-[2-(6-{[(2S)-2-Aminopropyl]oxy}imidazo[1,2-b]pyridazin-3-yl)furo[3,2-c]pyridin-4-yl]piperidin-4-yl}methanol]: the figures for the concentration for half-maximal inhibition (IC50) against MKNK1 [1] (Table 2c) and at MKNK1 [2] (Table 1c) were 0.0141 µM and 0.0065 µM, respectively.
Take `c1cc(N2CCOCC2)c2cc(-c3cnc4ccc(O[C@@H]5CCNC5)nn34)oc2c1` [II-13, 3-[4-(Morpholin-4-yl)-1-benzofuran-2-yl]-6-[(3R)-pyrrolidin-3-yloxy]imidazo[1,2-b]pyridazine]: the IC50 on MKNK1 [1] (Table 2b) stood at 0.058 µM; at MKNK1 [2] (Table 1b), 0.039 µM.
In the case of `COC[C@@H]1CCCN1c1nccc2oc(-c3cnc4ccc(O[C@H](C)CN)nn34)cc12` [III-136, (2R)-2-[(3-{4-[(2S)-2-(methoxymethyl)pyrrolidin-1-yl]furo[3,2-c]pyridin-2-yl}imidazo[1,2-b]pyridazin-6-yl)oxy]propan-1-amine], the values for the half-inhibitory concentration (IC50) on MKNK1 [1] (Table 2c) and on MKNK1 [2] (Table 1c) were 0.122 µM and 0.0525 µM, respectively.
Consider `C[C@@H]1CN(c2nccc3oc(-c4cnc5ccc(O[C@H]6C[C@H](N)C6)nn45)cc23)C[C@H](C)O1` [III-104, trans-3-[(3-{4-[(2R,6S)-2,6-Dimethylmorpholin-4-yl]furo[3,2-c]pyridin-2-yl}imidazo[1,2-b]pyridazin-6-yl)oxy]cyclobutanamine], for which the IC50 against MKNK1 [1] (Table 2c) is 0.0615 µM; on MKNK1 [2] (Table 1c), 0.0187 µM.
In the case of `O=C(NCCOc1ccc2ncc(-c3cc4ccccc4o3)n2n1)c1cccs1` [Example I-64, N-(2-{[3-(1-Benzofuran-2-yl)imidazo[1,2-b]-pyridazin-6-yl]oxy}ethyl)thiophene-2-carboxamide], the half-inhibitory concentration (IC50) at MKNK1 [1] (Table 2a) is 0.0105 µM; at MKNK1 [2] (Table 1a) it was 0.0047 µM.
For the compound `CCN(CCOC)c1nccc2oc(-c3cnc4ccc(OC[C@H]5CNCC(=O)N5)nn34)cc12` [III-90, (6R)-6-{[(3-{4-[Ethyl(2-methoxyethyl)amino]furo[3,2-c]pyridin-2-yl}imidazo[1,2-b]pyridazin-6-yl)oxy]methyl}piperazin-2-one], the results for the half-maximal inhibitory concentration (IC50) against MKNK1 [1] (Table 2c) and against MKNK1 [2] (Table 1c) were 0.0005 µM and 0.0008 µM, respectively.
As for `O=C(NCCOc1ccc2ncc(-c3cc4ccccc4o3)n2n1)c1ccccn1` [Example I-70, N-(2-{[3-(1-Benzofuran-2-yl)imidazo[1,2-b]-pyridazin-6-yl]oxy}ethyl)pyridine-2-carboxamide], the 50% inhibitory concentration (IC50) against MKNK1 [1] (Table 2a) is 0.0458 µM; against MKNK1 [2] (Table 1a), 0.0151 µM.
As for `CCN(CCOC)c1nccc2oc(-c3cnc4ccc(OCCCS(C)(=O)=O)nn34)cc12` [III-50, N-Ethyl-N-(2-methoxyethyl)-2-{6-[3-(methylsulfonyl)propoxy]imidazo[1,2-b]pyridazin-3-yl}furo[3,2-c]pyridin-4-amine], the IC50 on MKNK1 [1] (Table 2c) turned out to be 0.0005 µM; against MKNK1 [2] (Table 1c), 0.0014 µM.

Usually IC50 stands for the point on the concentration scale where inhibition reaches its midpoint.

Source of the values: patent publication US20160287589A1, “SUBSTITUTED-IMIDAZOPYRIDAZINES” (BAYER PHARMA AKTIENGESELLSCHAFT, priority 2013, published 2016).
